From BindingDB's records for doi:10.1021/acschembio.6b01133 (Merck & Co. Inc, 2017) come the findings set out here.

What all share (test): RNAP-Inhibition Assay
Conditions in all cases: 37 °C

The target of assay [1] is DNA-directed RNA polymerase subunit beta [D516V] (Escherichia coli, D516V). The protocol:
(§1) Fluorescence-detected RNAP inhibition assays in Tables 1 and 4 were performed using a DNA fragment containing the lacUV5 promoter as a template and the profluorescent ATP analog γ-[2′-(2-benzothiazoyl)-6′-hydroxybenzothiazole]-ATP(BBT-ATP, Jena Biosciences) as a substrate (methods as in ref 32). Fluorescence-detected RNAP inhibition assays in Figure 2C were performed essentially as described in refs 33 and 34. The assay used a proprietary circular single-stranded DNA as a template (Kool NC-45 Universal RNAP Template, Epicenter). […] A total of 5 μL of 20 nM recombinant RNAP in assay buffer [50 mM HEPES (pH = 8.0), 50 mM KCl, 4 mM MgCl2, 5% glycerol (v/v), 1 mM DTT, 0.1 mg mL−1 BSA, and 0.01% Triton X-100 (v/v)] was then added. After a 30 min incubation at RT, 5 μL of assay buffer solution containing 0.04 ng/μL DNA template and rNTPs (ATP, CTP, GTP, UTP; 600 μM each; Lucigen) was added to start the reaction. After incubation for 2 h at 37 °C, 70 μL of Quant-iT RiboGreen RNA Reagent [1:350 dilution in buffer containing 10 mM Tris-HCl (pH = 7.5) and 1 mM EDTA] was added to stop the reaction and develop the signal. The plate was read using a PheraStar Plus plate reader (BMG).

Assay [2] addresses DNA-directed RNA polymerase subunit beta (Escherichia coli (strain K12), UniProt P0A8V2). Here is the method: as §1
The target in assay [3] is DNA-directed RNA polymerase subunit beta [S531L] (Escherichia coli, S531L). The protocol: as §1
For assay [4], the target named is DNA-directed RNA polymerase subunit beta [H526D] (Escherichia coli, H526D). Here is the method: as §1

Each structure is given as a SMILES string. Where “and” joins values, the source holds several entries; their conditions need not be identical. Equal entries are not always repeated. Some results are limits rather than exact numbers.

Sequence of DNA-directed RNA polymerase subunit beta (P0A8V2 whole entry): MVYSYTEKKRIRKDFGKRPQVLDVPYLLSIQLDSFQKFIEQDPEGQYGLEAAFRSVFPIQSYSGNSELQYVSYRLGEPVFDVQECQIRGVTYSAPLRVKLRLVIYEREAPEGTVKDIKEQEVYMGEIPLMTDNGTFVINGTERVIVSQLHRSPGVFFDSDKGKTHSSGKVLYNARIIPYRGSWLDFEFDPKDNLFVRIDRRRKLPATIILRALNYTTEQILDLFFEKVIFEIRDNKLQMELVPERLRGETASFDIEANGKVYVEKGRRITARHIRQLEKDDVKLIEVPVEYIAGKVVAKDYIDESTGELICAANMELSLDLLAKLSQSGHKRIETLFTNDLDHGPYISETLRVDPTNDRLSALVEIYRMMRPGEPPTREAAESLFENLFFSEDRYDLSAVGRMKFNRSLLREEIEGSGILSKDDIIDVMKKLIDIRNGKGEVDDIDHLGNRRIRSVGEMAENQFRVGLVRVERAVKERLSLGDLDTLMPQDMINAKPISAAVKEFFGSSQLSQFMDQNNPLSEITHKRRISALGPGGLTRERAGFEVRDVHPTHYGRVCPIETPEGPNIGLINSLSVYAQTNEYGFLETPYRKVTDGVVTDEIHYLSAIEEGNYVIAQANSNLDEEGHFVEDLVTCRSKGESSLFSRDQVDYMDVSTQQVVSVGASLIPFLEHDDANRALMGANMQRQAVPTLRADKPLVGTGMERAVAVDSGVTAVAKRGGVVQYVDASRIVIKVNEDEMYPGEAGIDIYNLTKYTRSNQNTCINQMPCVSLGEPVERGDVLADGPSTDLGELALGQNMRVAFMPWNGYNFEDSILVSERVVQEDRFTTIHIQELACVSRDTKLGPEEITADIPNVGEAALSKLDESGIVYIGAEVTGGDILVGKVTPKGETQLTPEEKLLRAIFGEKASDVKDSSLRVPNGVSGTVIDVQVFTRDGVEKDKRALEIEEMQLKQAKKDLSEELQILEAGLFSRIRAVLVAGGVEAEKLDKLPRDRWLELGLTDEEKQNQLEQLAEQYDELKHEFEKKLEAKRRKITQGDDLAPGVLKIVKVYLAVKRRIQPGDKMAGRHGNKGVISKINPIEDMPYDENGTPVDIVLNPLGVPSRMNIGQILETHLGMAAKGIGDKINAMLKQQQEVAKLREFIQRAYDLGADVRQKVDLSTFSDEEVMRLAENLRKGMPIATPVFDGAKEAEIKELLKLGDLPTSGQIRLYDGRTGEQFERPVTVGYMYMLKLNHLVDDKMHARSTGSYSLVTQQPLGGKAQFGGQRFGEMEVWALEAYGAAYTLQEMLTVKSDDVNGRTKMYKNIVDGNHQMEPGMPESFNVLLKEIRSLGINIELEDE

The IC50 is the concentration needed to halve the response being measured. Low readings indicate inhibition by little substance, high ones a need for much substance. Consider `CO[C@H]1/C=C/O[C@@]2(C)Oc3c(C)c(O)c4c(O)c(cc(O)c4c3C2=O)NC(=O)/C(C)=C\C=C\[C@H](C)[C@H](O)[C@@H](C)[C@@H](O)[C@@H](C)[C@H](OC(C)=O)[C@@H]1C` [CB-01-11], for which the IC50 in assay [1] is 70 µM; in assay [2] it was 0.03 µM and 0.02 µM; in assay [3], 80 µM; in assay [4], more than 100 µM.
As to `CC(C)Cc1nnc2c(C(=O)NC3c4ccccc4-c4ccccc43)cccn12` [MRL-436], the IC50 in assay [1] is 4 µM; in assay [2], 2 µM and 3 µM; in assay [3] it was 4 µM; in assay [4] it was 3 µM.
